Measurements from patent US20230060873A1, “COMPOUNDS AND METHODS FOR FORMING ION CHANNELS IN BIOLOGICAL MEMBRANES” (Washington University, priority 2021, published 2023).

Tests used:
B. subtilis cells [1] = assay: Lactate dehydrogenase release (resofurin fluorescence), lariat ether; format: cell-based, Bacillus subtilis; conditions: 2 μM, 37° C, lithium lactate/NAD+ solution
Source text: A well-established assay was utilized to measure cell lysis by monitoring the release of the enzyme lactate dehydrogenase (LDH), which is ubiquitous in the cytoplasm of all cell types. The tetrameric active form of LDH catalyzes the final step of the glycolysis in B. subtilis and has a molecular weight of approximately 146 kDa in, with a nearly globular shape of an approximated radius of 80 Å (PDB ID: 3PQD). […] LDH couples two redox reactions, the first involving the interconversion of pyruvate (oxidized) and L-lactate (reduced) and the second, the interconversion of NAD^+ (oxidized) and NADH (reduced). The NADH oxidation can be coupled to the diaphorase-catalyzed […] of resazurin to resofurin, which is highly fluorescent. When the concentrations of L-lactate, NAD^+, diaphorase, and resazurin are saturated, the rate of increase in the resofurin fluorescence is limited only by the amount of available LDH in the medium.
To prepare the experiment, a 2-mL liquid culture of B. subtilis cells was grown at 37° C. in media until OD600=0.600, and then collected by centrifugation at 2000 rpm during 3 min. […] Fluorescence intensity was recorded each second using a Horiba Fluoromax 4 spectrometer (excitation wavelength=550 nm; emission wavelength=583 nm). […] To normalize, the fluorescence was divided by the fluorescence level just before timepoint t4. […]

B. subtilis cells [2] = assay: Lactate dehydrogenase release (resofurin fluorescence), MAcBCE/MAkBCE and controls; format: cell-based, Bacillus subtilis; conditions: 2 μM, 37° C, potassium lactate/NAD+ solution
Procedure: A 2 mL liquid culture of transformed B. subtilis cells was grown at 37° C. in LB media supplemented with […] kanamycin, until OD600=0.6. Cells were collected by centrifugation at 2000 rpm over 3 min. The bacterial pellet was washed twice in lactate/NAD^+ solution (95 mM potassium lactate, 10 mM nicotinamide adenine dinucleotide (NAD^+), 10 mM HEPES, pH adjusted to 7.4 with KOH). After the last centrifugation step, the bacteria were resuspended until OD600=1.0 in the lactate/NAD^+ solution, then diluted 100× in the same solution. The working fluorophore solution was a 1 mM of resazurin sodium salt (Alfa Cesar) in water. The experiment was started with 3 mL of lactate/NAD^+ solution in a quartz cuvette, then 3.1 μL of resazurin solution was added (timepoint t1, 50 sec) for a 1 μM final concentration, followed by the addition of 100 μL of the diluted B. subtilis suspension (timepoint t2, 100 sec). After 150 sec (timepoint t3, 250 sec), 10 μL of diaphorase (Worthinton Biochemical Corporation) 10 mg/mL solution was added. The final step involved the addition of 0.62 μL of a 10 mM stock solution of dialkylated diaza lariat ether (LEC10) in TFE (timepoint t4, 400 sec), for a final LEC10 concentration of 2 μM; or 3.1 μL of a 2 mM stock solution of valinomycin in DMSO, for a final valinomycin concentration of 2 μM; or 3.1 μL of a 20 mg/mL stock solution of lysozyme in lactate/NAD^+ solution, for a final lysozyme concentration of 20 μg/mL; or 3.1 μL of 10 mM stock solution of each MAcBCE or MAkBCE compounds in TFE, for final concentrations of 10 μM. Fluorescence intensity was recorded each second using a Horiba Fluoromax 4 spectrometer (λexcitation=550 nm; λemission=583 nm). […] To normalize, the fluorescence intensity was divided by the fluorescence level just before timepoint t4. […]
Experiments were repeated at least three times per condition. To normalize, the fluorescence intensity was divided by the fluorescence level just before timepoint t4.

CCCCCCCCCCN1CCOCCOCCN(CCCCCCCCCC)CCOCCOCC1 [LEC10, Didecyl diaza(18-crown-6)]
resofurin fluorescence (LDH release) (B. subtilis cells [1]): rapid rise in the fluorescence | resofurin fluorescence (LDH release) (B. subtilis cells [2]): increase in the resofurin fluorescence levels
